Source: ChEMBL document CHEMBL1127156, “m-Alkyl, ,,-trifluoroacetophenones: A new class of potent transition state analog inhibitors of acetylcholinesterase” (Bioorg Med Chem Lett, 1993)

molecular target: Acetylcholinesterase (Torpedo californica, UniProt P04058); assay: Tested for the ability to inhibit Acetylcholinesterase (AChE) from Torpedo californica; set-up: species or system Tetronarce californica
Sequence (P04058 whole entry): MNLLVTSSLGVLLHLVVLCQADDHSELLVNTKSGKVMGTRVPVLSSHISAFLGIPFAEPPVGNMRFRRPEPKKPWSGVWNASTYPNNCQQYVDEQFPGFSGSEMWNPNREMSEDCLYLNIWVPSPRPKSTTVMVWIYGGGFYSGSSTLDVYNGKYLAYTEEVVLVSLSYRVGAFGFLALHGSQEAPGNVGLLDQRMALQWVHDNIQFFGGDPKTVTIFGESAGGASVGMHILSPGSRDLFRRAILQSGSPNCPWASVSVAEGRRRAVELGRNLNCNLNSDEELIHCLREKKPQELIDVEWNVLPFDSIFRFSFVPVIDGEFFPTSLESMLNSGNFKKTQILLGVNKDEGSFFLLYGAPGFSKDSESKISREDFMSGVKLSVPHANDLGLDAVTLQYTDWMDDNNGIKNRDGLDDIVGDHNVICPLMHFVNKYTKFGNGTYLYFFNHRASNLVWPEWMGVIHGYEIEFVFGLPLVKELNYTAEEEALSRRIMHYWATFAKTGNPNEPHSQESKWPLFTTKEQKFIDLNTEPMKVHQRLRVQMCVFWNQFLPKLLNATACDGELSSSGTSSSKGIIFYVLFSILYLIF

Going from `CC(C)c1cccc(C(=O)C(F)(F)F)c1` to `Cc1cccc(C(=O)C(F)(F)F)c1`, the Ki rises from 8.5 pM to 2400 pM (280-fold).

First: CCc1cccc(C(=O)C(F)(F)F)c1
Second: CC(C)(C)c1cccc(C(=O)C(F)(F)F)c1
The Ki of the first is 110-fold higher: 390 pM for the first, 3.7 pM for the second.

For `O=C(c1cccc(C(F)(F)F)c1)C(F)(F)F`, the Ki was 390 pM.
